Results taken from ChEMBL document CHEMBL1201862, “PubChem BioAssay data set” (2004).
Active and inactive are the calls of the source.

What was measured:
Estrogen receptor beta [1] = molecular target: T1, Estrogen receptor beta (Homo sapiens, UniProt Q92731);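 note: recombinant ER-beta bound to coactivator SRC1 peptide in presence of estradiol agonist; inhibitors block coactivator peptide binding and lower the FRET signal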
Estrogen receptor beta [2] = molecular target: T1, Estrogen receptor beta; assay: blockers of SRC-3 recruitment to ERβ – biochemical, ELISA, streptavidin-HRP readout, orthogonal assay, confirmation (AID 1060)
[3] = molecular target: Heat shock protein HSP 90-alpha (Homo sapiens, UniProt P07900); assay: Luminescence-based dose response biochemical high throughput screening assay for inhibitors of the Heat Shock Protein 90 (HSP90). [Related pubchem assays: 1831 (Summary AID.), 1846 (Confirmation screen.), 1789 (Primary screen.)]
14-3-3 protein gamma = 14-3-3 protein gamma (Homo sapiens, UniProt P61981); assay: modulators of 14-3-3 gamma client binding – dose response (AID 711); assay type: functional
Chain of 14-3-3 protein gamma (P61981 whole entry): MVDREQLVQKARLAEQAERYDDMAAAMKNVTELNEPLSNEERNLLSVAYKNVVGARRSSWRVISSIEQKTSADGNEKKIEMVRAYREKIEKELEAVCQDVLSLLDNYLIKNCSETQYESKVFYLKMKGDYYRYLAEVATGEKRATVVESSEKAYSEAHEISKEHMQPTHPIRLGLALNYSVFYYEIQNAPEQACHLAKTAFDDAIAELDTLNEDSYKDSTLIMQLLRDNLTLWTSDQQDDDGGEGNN

[4] = Dd2 parasite growth inhibition in erythrocytes – SYBR Green, dry powder samples, set 9, dose response (AID 1159568); assay type: functional, cell-based
[5] = molecular target: Epstein-Barr nuclear antigen 1 (Epstein-Barr virus (strain B95-8) (HHV-4) (Human herpesvirus 4), UniProt P03211); assay: inhibition of EBV nuclear antigen 1 DNA binding – biochemical, fluorescence polarization, 1536-well, dose response (AID 2381); parameters: species or system human gammaherpesvirus 4;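 note: fluorescence polarization of a Cy5 DNA probe bound by EBNA-1 protein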
[6] = molecular target: Lytic switch protein BZLF1 (Epstein-Barr virus (strain B95-8) (HHV-4) (Human herpesvirus 4), UniProt P03206); assay: inhibition of BZLF1 ZTA DNA binding – biochemical, fluorescence polarization, Epstein-Barr virus, 1536-well, counter-screen for EBNA-1 inhibitor project, dose response (AID 2377); parameters: species or system human gammaherpesvirus 4;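 note: fluorescence polarization of Cy5-labelled ZRE DNA probe bound by purified Zta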
Chain of Lytic switch protein BZLF1 (P03206 whole entry): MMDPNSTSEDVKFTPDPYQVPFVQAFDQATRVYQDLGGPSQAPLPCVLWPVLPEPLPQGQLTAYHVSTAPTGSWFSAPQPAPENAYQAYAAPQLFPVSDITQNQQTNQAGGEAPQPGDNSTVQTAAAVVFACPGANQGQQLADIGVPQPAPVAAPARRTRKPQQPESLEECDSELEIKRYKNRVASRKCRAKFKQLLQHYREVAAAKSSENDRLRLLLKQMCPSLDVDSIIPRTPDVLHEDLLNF

[7] = molecular target: Solute carrier family 12 member 2/member 5 (Homo sapiens, UniProt P55011+Q9H2X9); assay: KCC2 and NKCC1 inhibition by rubidium flux, cell-based, NKCC1 counter-screen (AID 1734); assay type: functional, HEK293
NADPH oxidase 1 = NADPH oxidase 1 (Homo sapiens, UniProt Q9Y5S8); assay: Late-stage luminescence-based cell-based dose response assay to identify inhibitors of NADPH oxidase 1 (NOX1): Purchased analogs 2.; assay type: functional
Chain of NADPH oxidase 1 (Q9Y5S8 whole entry): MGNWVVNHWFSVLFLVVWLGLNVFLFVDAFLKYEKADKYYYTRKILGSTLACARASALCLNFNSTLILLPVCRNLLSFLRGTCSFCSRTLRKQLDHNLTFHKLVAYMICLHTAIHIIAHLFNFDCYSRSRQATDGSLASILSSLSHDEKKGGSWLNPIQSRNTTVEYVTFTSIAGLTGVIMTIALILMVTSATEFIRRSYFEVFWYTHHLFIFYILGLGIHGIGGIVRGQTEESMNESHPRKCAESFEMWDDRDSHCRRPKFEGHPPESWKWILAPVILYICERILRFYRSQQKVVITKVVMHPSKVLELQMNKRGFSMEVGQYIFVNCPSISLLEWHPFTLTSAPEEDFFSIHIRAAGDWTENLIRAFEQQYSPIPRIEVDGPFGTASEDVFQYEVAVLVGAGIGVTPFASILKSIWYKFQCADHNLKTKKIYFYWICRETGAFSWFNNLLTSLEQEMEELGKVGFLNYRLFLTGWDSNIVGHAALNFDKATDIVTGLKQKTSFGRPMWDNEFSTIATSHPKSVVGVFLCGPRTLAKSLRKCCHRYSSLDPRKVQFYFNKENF

[8] = M. tuberculosis H37Rv growth inhibitors, H37Rv strain (AID 1626); assay type: functional
[9] = growth inhibition of yeast DHODH-expressing 3D7 parasites – SYBR Green, dry powder samples, dose response (AID 1159570); assay type: functional, cell-based;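 note: parasite growth measured after 72 hours of compound exposure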
[10] = toxicity to human HepG2 hepatoma cells – cell-based, plate reader, dry powder samples, cytotoxicity control, dose response (AID 1159569); assay type: functional;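 note: inhibitor potency with signal falling toward the positive control level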
[11] = P. falciparum Dd2 growth inhibitors, dose response, SYBR Green, cherry-picked samples (AID 1159567); assay type: functional, cell-based
[12] = Dd2 malaria parasite growth inhibition potency – SYBR Green, dry powder samples, dose response (AID 1159566); assay type: functional, cell-based;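 note: potency for growth inhibition with lower SYBR green DNA signal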
[13] = growth inhibition of PfATP4-mutant resistant parasites – NITD609-resistant line, SYBR Green, dry powder, dose response (AID 1159571); assay type: functional, cell-based;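 note: parasites synchronized at ring stage by sorbitol before testing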
[14] = molecular target: T2, Mannose-6-phosphate isomerase (Homo sapiens, UniProt P34949); assay: MPI enzyme activity inhibition – biochemical, fluorescence intensity, coupled assay, primary screen (AID 1209)
T2 sequence (P34949 whole entry): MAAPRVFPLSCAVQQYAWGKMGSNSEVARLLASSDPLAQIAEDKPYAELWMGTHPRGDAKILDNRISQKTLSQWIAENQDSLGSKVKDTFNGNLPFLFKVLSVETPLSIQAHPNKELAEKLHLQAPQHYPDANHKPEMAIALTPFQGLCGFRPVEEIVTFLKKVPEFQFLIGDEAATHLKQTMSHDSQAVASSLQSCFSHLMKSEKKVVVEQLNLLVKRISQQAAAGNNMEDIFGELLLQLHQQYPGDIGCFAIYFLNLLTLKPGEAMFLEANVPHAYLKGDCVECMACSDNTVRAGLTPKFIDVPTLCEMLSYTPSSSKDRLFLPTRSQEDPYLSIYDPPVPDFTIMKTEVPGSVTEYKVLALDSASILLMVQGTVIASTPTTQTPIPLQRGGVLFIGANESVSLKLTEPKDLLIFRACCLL

Nonstructural protein 1 = Nonstructural protein 1 (Influenza A virus, UniProt Q194T2); assay type: functional, Influenza A virus (A/California/07/2009(H1N1))
Chain of Nonstructural protein 1 (Q194T2 whole entry): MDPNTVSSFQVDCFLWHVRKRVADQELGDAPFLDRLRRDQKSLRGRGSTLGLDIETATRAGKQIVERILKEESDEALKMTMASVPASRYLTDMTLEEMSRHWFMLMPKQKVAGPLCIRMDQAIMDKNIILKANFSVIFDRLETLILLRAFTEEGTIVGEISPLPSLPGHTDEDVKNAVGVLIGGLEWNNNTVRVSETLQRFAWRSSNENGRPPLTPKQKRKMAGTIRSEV

[15] = viability loss in HeLa cells – cytotoxicity control for MgcRacGAP inhibitor project, dose response (AID 624300); assay type: functional
[16] = molecular target: T3, Rac GTPase-activating protein 1 (Homo sapiens, UniProt Q9H0H5); assay: blockers of MgcRacGAP-driven Rac1 GTP hydrolysis – biochemical, ADP Hunter fluorescence, primary and confirmatory, confirmation (AID 624330); assay type: functional
T3 sequence (Q9H0H5 whole entry): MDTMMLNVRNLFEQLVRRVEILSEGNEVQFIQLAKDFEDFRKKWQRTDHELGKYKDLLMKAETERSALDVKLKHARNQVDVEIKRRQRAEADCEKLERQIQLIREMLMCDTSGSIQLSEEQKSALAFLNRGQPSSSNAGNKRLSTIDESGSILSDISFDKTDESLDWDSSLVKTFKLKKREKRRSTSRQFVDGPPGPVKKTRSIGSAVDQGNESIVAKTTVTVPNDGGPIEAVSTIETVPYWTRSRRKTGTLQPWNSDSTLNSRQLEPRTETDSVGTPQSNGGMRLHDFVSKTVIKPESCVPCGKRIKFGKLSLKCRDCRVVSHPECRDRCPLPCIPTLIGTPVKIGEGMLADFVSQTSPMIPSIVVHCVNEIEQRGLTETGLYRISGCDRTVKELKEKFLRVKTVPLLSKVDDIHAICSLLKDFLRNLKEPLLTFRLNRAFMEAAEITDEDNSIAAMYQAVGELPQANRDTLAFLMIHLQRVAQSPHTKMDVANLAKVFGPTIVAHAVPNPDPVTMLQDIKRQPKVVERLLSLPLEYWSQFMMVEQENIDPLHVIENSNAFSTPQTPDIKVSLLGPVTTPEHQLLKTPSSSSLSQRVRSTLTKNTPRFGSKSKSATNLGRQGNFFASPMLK

Cytochrome P450 2D6 = Cytochrome P450 2D6 (Homo sapiens, UniProt P10635);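 note: CYP2D6 member of a cytochrome P450 panel assay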
Chain of Cytochrome P450 2D6 (P10635 whole entry): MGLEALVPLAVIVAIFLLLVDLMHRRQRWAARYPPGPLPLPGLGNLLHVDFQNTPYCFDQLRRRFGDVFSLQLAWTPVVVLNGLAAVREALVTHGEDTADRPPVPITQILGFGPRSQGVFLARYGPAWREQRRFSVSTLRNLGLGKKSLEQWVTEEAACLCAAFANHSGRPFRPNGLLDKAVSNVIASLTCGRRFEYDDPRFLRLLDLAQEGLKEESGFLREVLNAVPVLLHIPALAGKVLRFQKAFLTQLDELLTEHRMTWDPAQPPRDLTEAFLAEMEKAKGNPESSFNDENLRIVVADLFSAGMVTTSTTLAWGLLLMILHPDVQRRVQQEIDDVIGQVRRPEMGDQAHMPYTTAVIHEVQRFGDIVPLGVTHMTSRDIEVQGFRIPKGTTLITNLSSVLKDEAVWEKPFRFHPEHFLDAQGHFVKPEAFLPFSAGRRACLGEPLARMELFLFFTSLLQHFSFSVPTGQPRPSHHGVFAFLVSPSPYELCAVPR

Protein Tat = Protein Tat (Human immunodeficiency virus type 1 group M subtype B (isolate HXB2)(HIV-1), UniProt P04608); assay type: functional;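 note: tat binding to TAR RNA read out by fluorescence polarization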
Chain of Protein Tat (P04608 whole entry): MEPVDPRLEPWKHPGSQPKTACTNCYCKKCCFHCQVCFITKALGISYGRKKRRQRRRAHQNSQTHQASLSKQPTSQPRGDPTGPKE

[17] = toxicity to human hepatoma HepG2 cells – cell-based, cherry-picked samples, cytotoxicity control, dose response (AID 1159577); assay type: functional
[18] = molecular target: 5-hydroxytryptamine receptor 1E (Homo sapiens, UniProt P28566); assay: Counterscreen assay for S1P3 antagonists: Dose response cell-based high throughput screening assay to identify antagonists of the 5-Hydroxytryptamine Receptor Subtype 1E (5HT1E). [Related pubchem assays: 1429, 485 ]; assay type: functional
Chain of 5-hydroxytryptamine receptor 1E (P28566 whole entry): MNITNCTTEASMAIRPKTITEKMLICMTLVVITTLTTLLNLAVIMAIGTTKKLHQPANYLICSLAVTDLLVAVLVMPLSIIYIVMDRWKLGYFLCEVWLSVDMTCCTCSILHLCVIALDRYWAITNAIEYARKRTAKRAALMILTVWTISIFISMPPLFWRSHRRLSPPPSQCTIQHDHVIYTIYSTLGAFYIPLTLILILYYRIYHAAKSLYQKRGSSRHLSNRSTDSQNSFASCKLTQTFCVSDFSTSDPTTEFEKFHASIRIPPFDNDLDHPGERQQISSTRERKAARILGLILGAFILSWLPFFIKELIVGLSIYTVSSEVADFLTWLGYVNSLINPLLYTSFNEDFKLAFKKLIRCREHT

[19] = molecular target: Sphingosine 1-phosphate receptor 3 (Homo sapiens, UniProt Q99500); assay: Dose response cell-based high throughput screening assay for antagonists of the Sphingosine 1-Phosphate Receptor 3 (S1P3). [Related pubchem assays: 1429, 485 ]; assay type: functional
Chain of Sphingosine 1-phosphate receptor 3 (Q99500 whole entry): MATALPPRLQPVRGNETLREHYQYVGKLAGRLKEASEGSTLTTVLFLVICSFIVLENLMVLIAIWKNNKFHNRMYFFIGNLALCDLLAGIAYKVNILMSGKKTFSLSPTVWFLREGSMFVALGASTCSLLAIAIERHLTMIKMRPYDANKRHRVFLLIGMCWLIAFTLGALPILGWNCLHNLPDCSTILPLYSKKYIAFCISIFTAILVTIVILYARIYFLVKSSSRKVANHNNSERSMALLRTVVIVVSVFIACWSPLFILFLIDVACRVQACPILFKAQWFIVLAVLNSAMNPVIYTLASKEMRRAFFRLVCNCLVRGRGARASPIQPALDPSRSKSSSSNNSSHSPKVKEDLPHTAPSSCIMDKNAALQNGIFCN

[20] = Luminescence Cell-Based Dose Response to Identify Activators of 5'UTR Stem-Loop Driven Prion Protein mRNA Translation in H4-C Neuroglioblastoma Cells. [Related pubchem assays: 1829 (Project Summary), 1814 (Primary HTS)]; assay type: functional
[21] = Luminescence Cell-Based Dose Response HTS to Identify Activators of Luciferase Translation or Activity in H4 […] Cells. [Related pubchem assays: 1829 (Project Summary), 1814 (Primary HTS)]; assay type: functional
[22] = Luminescence Cell-Based Dose Response to Identify Activators of Luciferase Translation or Activity in H4-C Neuroglioblastoma Cells. [Related pubchem assays: 1829 (Project Summary), 1814 (Primary HTS)]; assay type: functional
[23] = M. tuberculosis growth inhibition, HTS (AID 449762); assay type: functional
[24] = Luminescence Cell-Based Dose Confirmation to Identify Activators of 5'UTR Stem-Loop Driven Alpha-Synuclein mRNA Translation in H4 Neuroglioblastoma Cells. [Related pubchem assays: 1829 (Project Summary), 1814 (Primary HTS)]; assay type: functional
[25] = molecular target: Disintegrin and metalloproteinase domain-containing protein 17 (Homo sapiens, UniProt P78536); assay: inhibition of ADAM17 substrate cleavage – biochemical, quenched FRET substrate, counter-screen for ADAM10 exosite inhibitor project, dose response (AID 743253)
Chain of Disintegrin and metalloproteinase domain-containing protein 17 (P78536 whole entry, the tested form may be a part): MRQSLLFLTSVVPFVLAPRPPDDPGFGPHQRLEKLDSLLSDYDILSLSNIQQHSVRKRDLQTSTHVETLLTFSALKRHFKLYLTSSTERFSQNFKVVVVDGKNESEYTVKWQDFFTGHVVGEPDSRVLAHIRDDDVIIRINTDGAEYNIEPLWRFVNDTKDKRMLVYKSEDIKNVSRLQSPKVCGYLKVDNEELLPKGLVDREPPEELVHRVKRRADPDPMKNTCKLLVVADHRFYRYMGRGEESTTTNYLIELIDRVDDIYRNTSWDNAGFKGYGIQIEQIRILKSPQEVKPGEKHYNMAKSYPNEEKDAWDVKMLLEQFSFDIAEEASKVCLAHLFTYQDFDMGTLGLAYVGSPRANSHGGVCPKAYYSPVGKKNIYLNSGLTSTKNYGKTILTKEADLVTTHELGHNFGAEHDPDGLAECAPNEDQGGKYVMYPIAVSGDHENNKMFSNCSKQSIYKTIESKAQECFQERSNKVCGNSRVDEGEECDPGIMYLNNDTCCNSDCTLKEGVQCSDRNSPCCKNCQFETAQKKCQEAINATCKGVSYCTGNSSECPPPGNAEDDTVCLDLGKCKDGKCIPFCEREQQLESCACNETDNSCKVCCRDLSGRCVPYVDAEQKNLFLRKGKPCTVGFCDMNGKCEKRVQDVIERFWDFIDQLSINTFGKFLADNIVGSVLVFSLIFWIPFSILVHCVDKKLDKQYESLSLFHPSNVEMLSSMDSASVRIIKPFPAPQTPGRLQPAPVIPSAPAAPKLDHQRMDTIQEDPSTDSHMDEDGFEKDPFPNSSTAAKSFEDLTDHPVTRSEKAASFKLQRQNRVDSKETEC

[26] = viability loss in Vero cells – cytotoxicity control for Vif-APOBEC3G degradation inhibitor project, dose response (AID 1117358); assay type: functional; conditions: Vero
[27] = molecular target: Peroxisome proliferator-activated receptor gamma/Nuclear receptor corepressor 2 (Homo sapiens, UniProt P37231+Q9Y618); assay: Counterscreen for NR2E3 inverse agonists: TR-FRET-based biochemical high throughput dose response assay to identify inverse agonists of the interaction between peroxisome proliferator-activated receptor gamma (PPARg) and nuclear receptor co-repressor 2 (NCOR2).; assay type: functional
[28] = molecular target: Photoreceptor-specific nuclear receptor (Homo sapiens, UniProt Q9Y5X4); assay: ligands suppressing NR2E3 nuclear receptor activity – biochemical, TR-FRET, dose response (AID 463256); assay type: functional
Chain of Photoreceptor-specific nuclear receptor (Q9Y5X4 whole entry): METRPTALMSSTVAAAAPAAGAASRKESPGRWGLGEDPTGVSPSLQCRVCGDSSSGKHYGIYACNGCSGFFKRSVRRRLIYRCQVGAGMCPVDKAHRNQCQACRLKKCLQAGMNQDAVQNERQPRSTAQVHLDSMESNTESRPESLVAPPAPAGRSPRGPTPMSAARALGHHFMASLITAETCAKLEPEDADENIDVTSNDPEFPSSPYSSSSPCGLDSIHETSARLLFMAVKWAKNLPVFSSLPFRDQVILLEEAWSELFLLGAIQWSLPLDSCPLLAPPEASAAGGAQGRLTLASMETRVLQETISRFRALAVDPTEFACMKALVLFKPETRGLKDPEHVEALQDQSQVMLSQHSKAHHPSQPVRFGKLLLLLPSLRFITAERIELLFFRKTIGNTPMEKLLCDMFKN

[29] = Luminescent dose response cell-based high throughput screening assay for inhibitors of the Janus kinase 2 mutant JAK2V617F. [Related pubchem assays: 1446 (Primary screen.), 1521 (Confirmation assay.), 1486 (Counter screen.)]; assay type: functional
[30] = molecular target: T4, E3 ubiquitin-protein ligase XIAP (Homo sapiens, UniProt P98170); assay: Counter Screen using XIAP-Bir3 for Chemical Antagonists of Bir1/2 domains of IAP-family anti-apoptotic proteins. [Related pubchem assays (depositor defined):AID1018, AID1449, AID1514, AID1638, AID1749, AID1750, AID488957, AID488963]
T4 sequence (P98170 whole entry): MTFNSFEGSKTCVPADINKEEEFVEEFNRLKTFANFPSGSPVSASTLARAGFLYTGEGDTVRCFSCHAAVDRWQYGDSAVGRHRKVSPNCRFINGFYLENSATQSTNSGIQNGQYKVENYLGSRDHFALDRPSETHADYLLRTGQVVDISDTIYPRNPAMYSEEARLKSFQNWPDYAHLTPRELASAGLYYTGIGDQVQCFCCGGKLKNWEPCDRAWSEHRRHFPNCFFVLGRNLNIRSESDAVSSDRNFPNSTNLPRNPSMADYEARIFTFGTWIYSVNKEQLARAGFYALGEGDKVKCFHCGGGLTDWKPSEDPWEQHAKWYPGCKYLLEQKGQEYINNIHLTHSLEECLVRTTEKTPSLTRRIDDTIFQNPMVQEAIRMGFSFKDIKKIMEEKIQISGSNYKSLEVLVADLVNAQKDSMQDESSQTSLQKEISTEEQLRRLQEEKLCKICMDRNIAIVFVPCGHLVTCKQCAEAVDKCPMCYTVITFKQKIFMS

[31] = molecular target: T4, E3 ubiquitin-protein ligase XIAP; assay: small molecules displacing peptide from XIAP – biochemical, IAP family, fluorescence polarization (AID 1018); assay type: functional
Estrogen receptor = molecular target: T5, Estrogen receptor (Homo sapiens, UniProt P03372); assay: ERα coactivator recruitment enhancers – biochemical, TR-FRET, ERα LBD, dose response (AID 737)
T5 sequence (P03372 whole entry): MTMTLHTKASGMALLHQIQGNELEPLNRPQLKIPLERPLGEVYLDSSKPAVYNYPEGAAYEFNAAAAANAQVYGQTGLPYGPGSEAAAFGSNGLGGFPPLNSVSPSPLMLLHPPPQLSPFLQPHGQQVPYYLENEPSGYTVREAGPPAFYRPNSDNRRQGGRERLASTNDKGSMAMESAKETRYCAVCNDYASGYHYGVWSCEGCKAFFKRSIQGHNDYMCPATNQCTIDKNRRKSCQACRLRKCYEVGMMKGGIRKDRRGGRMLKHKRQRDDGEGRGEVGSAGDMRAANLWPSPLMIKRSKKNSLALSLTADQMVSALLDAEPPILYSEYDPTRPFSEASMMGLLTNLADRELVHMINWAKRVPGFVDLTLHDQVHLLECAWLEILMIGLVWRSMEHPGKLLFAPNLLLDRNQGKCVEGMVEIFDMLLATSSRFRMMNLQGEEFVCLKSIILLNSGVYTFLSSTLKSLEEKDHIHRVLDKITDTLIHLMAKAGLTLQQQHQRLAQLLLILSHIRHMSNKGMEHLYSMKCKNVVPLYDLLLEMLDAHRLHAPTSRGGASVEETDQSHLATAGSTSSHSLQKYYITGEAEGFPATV

T1 sequence (Q92731 whole entry): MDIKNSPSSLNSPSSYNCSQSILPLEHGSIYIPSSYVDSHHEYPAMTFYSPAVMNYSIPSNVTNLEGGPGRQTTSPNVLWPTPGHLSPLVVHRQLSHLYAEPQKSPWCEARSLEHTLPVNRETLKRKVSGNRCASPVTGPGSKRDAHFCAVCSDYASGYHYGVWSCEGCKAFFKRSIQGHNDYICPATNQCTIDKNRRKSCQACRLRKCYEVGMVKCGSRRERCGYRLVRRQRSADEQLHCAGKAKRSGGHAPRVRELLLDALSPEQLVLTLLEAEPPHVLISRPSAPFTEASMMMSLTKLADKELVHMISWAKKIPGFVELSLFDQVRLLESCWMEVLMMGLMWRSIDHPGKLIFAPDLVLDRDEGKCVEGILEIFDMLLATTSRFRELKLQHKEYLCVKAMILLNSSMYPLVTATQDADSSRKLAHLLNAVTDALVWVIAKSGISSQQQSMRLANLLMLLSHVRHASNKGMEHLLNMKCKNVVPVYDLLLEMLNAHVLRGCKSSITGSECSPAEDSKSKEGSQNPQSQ

Cc1nc2cc(C(=O)O)ccc2[nH]1
IC50 (Estrogen receptor beta [1]): 24.7 µM (active) | IC50 (Estrogen receptor beta [2]): 99.5 µM (not active) | IC50 [3]: 7.21 µM (active)

COc1ccc(C(=O)Oc2ccc(C(C)=O)cc2)c(OC)c1
IC50 (14-3-3 protein gamma): > 50 µM (not active)

C[C@@H]1CCCCO[C@H](CN(C)S(=O)(=O)c2ccccc2)[C@@H](C)CN([C@@H](C)CO)C(=O)c2cc(NC(=O)Nc3ccc4c(c3)OCO4)ccc2O1
AC50 [4]: 1.64 µM (active)

Cc1ccc(/C=C2\SC(=S)N(CCC(=O)NNC(=O)c3ccc(O)cc3)C2=O)cc1
IC50 [5]: 11.6 µM (not active) | IC50 [6]: > 111 µM (not active)

O=C(Cn1cnc2c(nnn2Cc2ccccc2)c1=O)N1CCCc2ccccc21
IC50 [7]: 6 µM (active)

COc1ccc(/C=N/Nc2c(F)c(F)c(F)c(F)c2F)cc1
IC50 (NADPH oxidase 1): > 17 µM (not active)

CCOC(=O)c1ccc(NC(=O)Cn2cccc2)cc1
IC50 [8]: > 100 µM (active)

CCCN(C)C[C@@H]1Oc2cc(C#Cc3cccnc3)ccc2S(=O)(=O)N([C@@H](C)CO)C[C@H]1C
AC50 [9]: 3.59 µM (active) | AC50 [10]: 79.5 µM (active) | AC50 [11]: 2.13 µM (active) | AC50 [12]: 2.62 µM (active) | AC50 [13]: 2.99 µM (active)

CC(C)/N=c1\scc(-c2ccco2)n1/N=C/c1ccc(O)c(O)c1
IC50 [14]: > 50 µM (not active) | IC50 (Nonstructural protein 1): 39.3 µM (active) | CC50 [15]: 99.4 µM (active) | IC50 [16]: 56.3 µM (active) | AC50 (Cytochrome P450 2D6): 14.1 µM (inconclusive)

COC(=O)C(C)Sc1nnc(Cc2cc(O)nc(O)n2)n1-c1cc(C)ccc1C (stereo not drawn)
IC50 (Protein Tat): > 100 µM (active)

CCS(=O)(=O)N1CC2(C1)[C@@H](c1ccccc1)[C@H](CO)N2Cc1ccc(F)cc1
AC50 [11]: 6 µM (active) | AC50 [17]: > 39 µM (inactive)

Cc1ccccc1C(=O)N1CCN(c2ccc(NC(=O)c3ccc4c(c3)OCO4)cc2)CC1
IC50 [18]: 13.7 µM (not active) | IC50 [19]: > 50 µM (not active)

C(=C\c1ccccc1)/C=N/Nc1nc2ccccc2s1
EC50 [20]: 0.349 µM (active) | EC50 [21]: < 0.1 µM (inconclusive) | EC50 [22]: 0.289 µM (active) | IC50 [23]: > 100 µM (active) | EC50 [24]: 0.366 µM (active) | IC50 [25]: > 69.5 µM (inactive)

CCCCCO/C(O)=C1\C(C)=Nc2nnnn2C1c1ccccc1Cl (stereo not drawn)
CC50 [26]: > 40 µM (active)

CC1(C)Cc2ccccc2-c2nnc(SCC(=O)N3CCc4ccccc43)n21
IC50 [27]: 7.95 µM (active) | IC50 [28]: 4.42 µM (active)

COc1ccc(-c2cnc3c(c2)CCC3(C#N)C#N)cc1
IC50 [29]: 0.768 µM (active)

O=C(Nc1ccccc1)c1cc(S(=O)(=O)N2CCSCC2)ccc1Cl
IC50 [30]: > 100 µM (inactive) | IC50 [31]: > 100 µM (not active)

CCOC(=O)c1cc2c(c(CSc3nc4ccccc4c(=O)n3Cc3ccco3)c1)OCOC2
EC50 (Estrogen receptor): 3.27 µM (active)
